Assay results taken from US5871946A, “Method for determining activity of enzymes in metabolically active whole cells” (priority 1995, dated 1999).
Numbered stars: 1 amine (or outer) side, 2 acyl side, 3 side chain; on linkers, the order of the positions; unused ones are H or OH. Bridge positions count the residues as written; N and C are the ends. Peptide text beside a SMILES is read from it. I, II: the chains in the order shown. Rhodamine110 = O=C1OC2(c3ccc(N[*:1])cc3Oc3cc(N[*:2])ccc32)c2ccccc21

Tests used:
[1] = tested on: MONOCYTES; assay: Disease to normal ratio of enzyme activity, monocytes (Table 5); format: cell-based, human
Excerpt: (§1) A normal in house adult donor pool was drawn, recording sex and determining that no known disease state was present at the time of sample draw. Criteria for rejecting samples included patients under medication, patients with infection or inflammation of any type, colds and flu as well as any known medical illness such as cancer, heart ailment and high blood pressure. A donor list of 75 patients has been developed and a mean and 2 sd range established. A subgroup of "super normals" was developed from this list by examining the 75 patients to determine which group falls closest to the mean for all enzymes in all cell types tested. These patients were used as the "wellness index" or best group of "normalcy" patients. If a study required the use of children or newborns then this same format was used to develop a data base for these age groups.

[2] = tested on: LYMPHOCYTES; assay: Disease to normal ratio of enzyme activity, lymphocytes (Table 5); format: cell-based, human
Excerpt: as §1

[3] = Inflam. Bowel Dis., monocytes section

| SMILES | Ratio of disease to normal ([1]; JRA, monocytes) | Ratio of disease to normal ([1]; Rheumatic Fever, monocytes) | Ratio of disease to normal ([2]; Dermatomyositis) | Ratio of disease to normal ([2]; Inflam. Bowel Dis.) | Ratio of disease to normal ([2]; Kawasaki's) | Ratio of disease to normal ([2]; Lupus) | Ratio of disease to normal ([1]; Dermatomyositis, monocytes) | Ratio of disease to normal [1, 3] | Ratio of disease to normal ([1]; Kawasaki's, monocytes) | Ratio of disease to normal ([1]; Lupus, monocytes) | Ratio of disease to normal ([2]; JRA) | Ratio of disease to normal ([2]; Rheumatic Fever) |
| --- | --- | --- | --- | --- | --- | --- | --- | --- | --- | --- | --- | --- |
| O=C1OC2(c3ccc(OP(=O)(O)O)cc3Oc3cc(OP(=O)(O)O)ccc32)c2ccccc21 [DPO4, (PO4)2 fluorescein] | 1.13 | 1.09 |  |  |  |  |  |  |  |  |  |  |
| CC(C)[C@H](N)C(=O)N[C@@H](CCCCN)C(=O)Nc1ccc2c(c1)Oc1cc(NC(=O)[C@H](CCCCN)NC(=O)[C@@H](N)C(C)C)ccc1C21OC(=O)c2ccccc21 [VK, (Val-Lys)2 Rho 110] | 5.94 | 1.32 | 1.39 | 1.08 | 1.19 | 1.25 | 1.42 | 3.08 | 5.38 | 1.64 |  |  |
| CC(=O)Oc1ccc2c(c1)Oc1cc(OC(C)=O)ccc1C21OC(=O)c2ccccc21 [FDA-NAF, reference compound] | 0.35 | 0.89 | 1.14 | 0.89 | 0.30 | 0.74 | 1.03 | 1.11 | 0.58 | 0.83 | 0.21 | 0.97 |
| C[C@@H](O)[C@H](NC(=O)OCc1ccccc1)C(=O)N1CCC[C@H]1C(=O)Nc1ccc2c(c1)Oc1cc(NC(=O)[C@@H]3CCCN3C(=O)[C@@H](NC(=O)OCc3ccccc3)[C@@H](C)O)ccc1C21OC(=O)c2ccccc21 [Z-TP6.5, (carbobenzyloxycarbonyl-Thr-Pro)2 Rho 110 (pH 6.5)] | 8.33 | 5.37 | 3.87 | 3.03 | 5.85 |  | 3.12 | 2.83 |  | 2.29 | 2.89 | 7.19 |
| N=C(N)NCCC[C@H](N)C(=O)NCC(=O)N[C@@H](CCC(=O)O)C(=O)N[C@@H](CO)C(=O)Nc1ccc2c(c1)Oc1cc(NC(=O)[C@H](CO)NC(=O)[C@H](CCC(=O)O)NC(=O)CNC(=O)[C@@H](N)CCCNC(=N)N)ccc1C21OC(=O)c2ccccc21 (stereo partly drawn) [RGES, (Arg-Gly-Glu-Ser)2 Rho 110] (I: H-RGES / II: H-RGES; linker I:C-II:C via Rhodamine110) | 3.98 | 6.52 | 2.06 | 1.96 | 1.43 | 1.84 | 5.22 | 6.02 | 4.65 | 3.03 | 1.43 | 2.04 |
| C[C@H](N)C(=O)Nc1ccc2c(c1)Oc1cc(NC(=O)[C@H](C)N)ccc1C21OC(=O)c2ccccc21 [ALA, (Ala)2 Rho 110] | 1.31 | 1.08 | 1.16 | 1.53 | 1.05 | 1.16 |  | 1.43 | 1.36 | 6.17 | 1.59 | 1.18 |
| O=C(NCC(=O)N1CCC[C@H]1C(=O)Nc1ccc2c(c1)Oc1cc(NC(=O)[C@@H]3CCCN3C(=O)CNC(=O)OCc3ccccc3)ccc1C21OC(=O)c2ccccc21)OCc1ccccc1 [Z-GP-M, (carbobenzyloxycarbonyl-Gly-Pro)2 Rho 110 (modified)] | 1.79 | 2.99 | 3.45 |  | 3.44 | 2.09 | 3.05 | 3.33 | 4.47 | 1.92 |  | 4.09 |
| CC(C)[C@H](N)C(=O)N[C@@H](CCCCN)C(=O)Nc1ccc2c(c1)Oc1cc(NC(=O)[C@H](CCCCN)NC(=O)[C@@H](N)C(C)C)ccc1C21OC(=O)c2ccccc21 [VK-M, (Val-Lys)2 Rho 110 (modified)] | 3.49 | 8.67 |  |  |  |  | 3.45 | 1.41 |  | 11.37 | 7.71 |  |
| C[C@H](NC(=O)[C@@H](N)CCCCN)C(=O)Nc1ccc2c(c1)Oc1cc(NC(=O)[C@H](C)NC(=O)[C@@H](N)CCCCN)ccc1C21OC(=O)c2ccccc21 [KA-M, (Lys-Ala)2 Rho 110] | 12.14 | 15.36 | 1.93 | 1.63 | 1.32 | 1.06 | 1.55 |  | 7.08 | 14.08 | 1.46 | 2.07 |
| NCC(=O)Nc1ccc2c(c1)Oc1cc(NC(=O)CN)ccc1C21OC(=O)c2ccccc21 [GLY, (Gly)2 Rho 110] | 1.11 | 2.06 |  | 1.97 | 1.94 | 1.64 | 1.01 | 1.84 | 3.83 |  |  | 2.09 |
| C[C@H](NC(=O)[C@@H](N)CCCCN)C(=O)Nc1ccc2c(c1)Oc1cc(NC(=O)[C@H](C)NC(=O)[C@@H](N)CCCCN)ccc1C21OC(=O)c2ccccc21 [KA, (Lys-Ala)2 Rho 110] |  | 2.39 | 1.39 | 1.75 | 1.53 | 1.93 | 1.04 | 1.95 | 2.22 | 6.93 |  | 1.19 |
| CC(=O)Oc1ccc2c(c1)Oc1cc(OC(C)=O)ccc1C21OC(=O)c2ccccc21 [FDA, fluorescein diacetate, reference compound] | 1.55 |  | 1.06 |  |  | 1.01 |  |  |  | 1.01 | 1.17 |  |
| O=C(NCC(=O)N1CCC[C@H]1C(=O)Nc1ccc2c(c1)Oc1cc(NC(=O)[C@@H]3CCCN3C(=O)CNC(=O)OCc3ccccc3)ccc1C21OC(=O)c2ccccc21)OCc1ccccc1 [Z-GP, (carbobenzyloxycarbonyl-Gly-Pro)2 Rho 110] | 1.34 | 3.56 | 1.73 | 1.73 |  | 1.93 |  | 1.64 | 4.06 | 1.88 | 1.29 | 3.23 |
